# Values joined by “and” are separate entries in the source; they are usually repeats but may differ in a detail not shown here. Identical values can stand only once. Like-named read-outs stand apart in the source and are kept apart here.
# Experiments:
# WI‐26 VA4 cells [1] = experiment: Puromycin incorporation assay; assay type: cell-based, human; settings: for activity at 0.001 µM: WI26VA4, 1 nM; for activity at 0.01 µM: WI26VA4, 10 nM; for activity at 0.03 µM: WI26VA4, 30 nM; for activity at 0.1 µM: WI26VA4, 100 nM; for activity at 1 µM: WI26VA4, 1000 nM; for activity at 3 µM: WI26VA4, 3000 nM
# How it was run: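 WI‐26 VA4 cell lysates prepared in carbonate-bicarbonate buffer with protease inhibitor; 400 ng protein coated on ELISA plates 18 h at 4°C. Puromycin incorporated into proteins detected by antibody ELISA, absorbance 450 nm with 620 nm reference; outlier values excluded based on replicates and adjacent concentrations.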
# WI‐26 VA4 cells [2] = experiment: Collagen ELISA (secreted pro‐collagen I); settings: Homo sapiens
# [3] = Homo sapiens, read-out: Puromycin, % of control, average
# [4] = Homo sapiens, read-out: Puromycin, % of control, single replicate
smiles,measurement,setting,value
"O=C(CC1NCCCC1O)Cn1cnc2cc(Br)c(Cl)cc2c1=O (stereo not shown) [HF, Halofuginone, reference compound]","Puromycin, % of control, single replicate","WI‐26 VA4 cells [1]; 3 nM, 0.003 µM",87.66 % of control and 110.89 % of control and 102.72 % of control and 101.10 % of control and 86.71 % of control and 84.36 % of control and 98.41 % of control and 95.09 % of control and 95.08 % of control and 108.41 % of control and 105.39 % of control and 104.60 % of control
same,"Puromycin, % of control, single replicate","WI‐26 VA4 cells [1]; 10 nM, 0.01 µM",100.34 % of control and 96.77 % of control and 97.76 % of control and 87.44 % of control and 83.58 % of control and 96.23 % of control and 94.53 % of control
same,"Puromycin, % of control, single replicate","WI‐26 VA4 cells [1]; 30 nM, 0.03 µM",113.27 % of control and 109.87 % of control and 110.26 % of control and 116.66 % of control and 114.17 % of control and 107.05 % of control and 108.24 % of control and 108.11 % of control and 111.56 % of control and 111.23 % of control and 110.22 % of control
same,"Puromycin, % of control, single replicate","WI‐26 VA4 cells [1]; 100 nM, 0.1 µM",90.48 % of control and 92.59 % of control and 92.61 % of control and 84.84 % of control and 84.75 % of control and 85.14 % of control and 85.25 % of control and 85.34 % of control and 84.22 % of control
same,"Puromycin, % of control, single replicate","WI‐26 VA4 cells [1]; 300 nM, 0.3 µM",10.84 % of control and 35.41 % of control and 34.99 % of control and 10.87 % of control and 10.33 % of control and 31.26 % of control and 32.35 % of control and 31.90 % of control and 32.62 % of control and 32.23 % of control and 32.21 % of control
same,"Puromycin, % of control, single replicate","WI‐26 VA4 cells [1]; 3000 nM, 3 µM",3.08 % of control (2×) and 2.96 % of control and 3.28 % of control and 2.21 % of control and 2.18 % of control and 2.60 % of control and 2.20 % of control and 3.16 % of control and 3.05 % of control
same,"Puromycin, % of control, single replicate","WI‐26 VA4 cells [1]; 10000 nM, 10 µM",3.89 % of control and 1.98 % of control and 2.07 % of control and 2.17 % of control and 4.12 % of control and 4.05 % of control and 1.27 % of control and 1.14 % of control and 1.39 % of control and 2.12 % of control and 2.04 % of control
same,"Puromycin, % of control, single replicate","WI‐26 VA4 cells [1]; 30000 nM, 30 µM",2.04 % of control and 1.64 % of control and 1.93 % of control and 3.75 % of control and 1.32 % of control and 1.84 % of control and 1.82 % of control and 1.41 % of control
same,activity at 0.001 µM,WI‐26 VA4 cells [1]; [3],102%
same,activity at 0.001 µM,WI‐26 VA4 cells [1]; [4],101%
same,activity at 0.003 µM,"WI‐26 VA4 cells [1]; Homo sapiens, WI26VA4, 3 nM, read-out: Puromycin, % of control, average",98.4%
same,activity at 0.01 µM,WI‐26 VA4 cells [1]; [3],94.8%
same,activity at 0.01 µM,WI‐26 VA4 cells [1]; [4],86.6%
same,activity at 0.03 µM,WI‐26 VA4 cells [1]; [3],111%
same,activity at 0.03 µM,WI‐26 VA4 cells [1]; [4],117%
same,activity at 0.1 µM,WI‐26 VA4 cells [1]; [3],88%
same,activity at 0.1 µM,WI‐26 VA4 cells [1]; [4],94.6%
same,activity at 0.3 µM,"WI‐26 VA4 cells [1]; Homo sapiens, WI26VA4, 300 nM, read-out: Puromycin, % of control, average",26.8%
same,activity at 1 µM,WI‐26 VA4 cells [1]; [3],3.03%
same,activity at 1 µM,WI‐26 VA4 cells [1]; [4],2.13%
same,activity at 3 µM,WI‐26 VA4 cells [1]; [3],2.66%
same,activity at 3 µM,WI‐26 VA4 cells [1]; [4],2.13%
same,activity at 10 µM,"WI‐26 VA4 cells [1]; Homo sapiens, WI26VA4, 10000 nM, read-out: Puromycin, % of control, average",2.36%
same,activity at 30 µM,"WI‐26 VA4 cells [1]; Homo sapiens, WI26VA4, 30000 nM, read-out: Puromycin, % of control, average",1.87%
same,IC50,"WI‐26 VA4 cells [1]; Homo sapiens, WI26VA4, log(inhibitor) vs. response, variable slope (four parameters), read-out: Puromycin, IC50 (best-fit value)",200 nM
same,"Puromycin, HillSlope (best-fit value)","WI‐26 VA4 cells [1]; log(inhibitor) vs. response, variable slope (four parameters)",-2.795
same,"Puromycin, LogIC50 (best-fit value)","WI‐26 VA4 cells [1]; log(inhibitor) vs. response, variable slope (four parameters), concentration in nM",2.301
same,IC50,"WI‐26 VA4 cells [2]; WI26VA4, 72 h, read-out: IC50 for collagen level, TGF‐β 2 ng/ml, 72 h (Fig 1B)",15.2 nM
same,IC50,"WI‐26 VA4 cells [2]; WI26VA4, read-out: Collagen IC50 (best-fit value), log(inhibitor) vs. response, variable slope (four parameters) (converted)",15.2 nM
same,activity at 1 µM,"WI‐26 VA4 cells [2]; WI26VA4, read-out: Collagen, % of control (single replicates per experiment), 1000 nM",3.91%
same,activity at 0.0003 µM,"WI‐26 VA4 cells [2]; WI26VA4, read-out: Collagen, % of control, average, 0.3 nM, average",96.4%
same,activity at 0.001 µM,"WI‐26 VA4 cells [2]; WI26VA4, read-out: Collagen, % of control, average, 1 nM, average",103%
same,activity at 0.003 µM,"WI‐26 VA4 cells [2]; WI26VA4, read-out: Collagen, % of control, average, 3 nM, average",101%
same,activity at 0.01 µM,"WI‐26 VA4 cells [2]; WI26VA4, read-out: Collagen, % of control, average, 10 nM, average",71.9%
same,activity at 0.03 µM,"WI‐26 VA4 cells [2]; WI26VA4, read-out: Collagen, % of control, average, 30 nM, average",21.6%
same,activity at 0.1 µM,"WI‐26 VA4 cells [2]; WI26VA4, read-out: Collagen, % of control, average, 100 nM, average",3.57%
same,activity at 0.3 µM,"WI‐26 VA4 cells [2]; WI26VA4, read-out: Collagen, % of control, average, 300 nM, average",2.57%
same,activity at 1 µM,"WI‐26 VA4 cells [2]; WI26VA4, read-out: Collagen, % of control, average, 1000 nM, average",3.27%
same,activity at 0.0003 µM,"WI‐26 VA4 cells [2]; WI26VA4, read-out: Efficacy, % of control, average, 0.3 nM",104%
same,activity at 0.001 µM,"WI‐26 VA4 cells [2]; WI26VA4, read-out: Efficacy, % of control, average, 1 nM",104%
same,activity at 0.003 µM,"WI‐26 VA4 cells [2]; WI26VA4, read-out: Efficacy, % of control, average, 3 nM",108%
same,activity at 0.01 µM,"WI‐26 VA4 cells [2]; WI26VA4, read-out: Efficacy, % of control, average, 10 nM",73%
same,activity at 0.03 µM,"WI‐26 VA4 cells [2]; WI26VA4, read-out: Efficacy, % of control, average, 30 nM",24.9%
same,activity at 0.1 µM,"WI‐26 VA4 cells [2]; WI26VA4, read-out: Efficacy, % of control, average, 100 nM",3.73%
same,activity at 0.3 µM,"WI‐26 VA4 cells [2]; WI26VA4, read-out: Efficacy, % of control, average, 300 nM",2.78%
same,activity at 1 µM,"WI‐26 VA4 cells [2]; WI26VA4, read-out: Efficacy, % of control, average, 1000 nM",2.54%
same,activity at 0.0003 µM,"WI‐26 VA4 cells [2]; WI26VA4, read-out: Efficacy, % of control, single replicate, 0.3 nM",114%
same,activity at 0.001 µM,"WI‐26 VA4 cells [2]; WI26VA4, read-out: Efficacy, % of control, single replicate, 1 nM",112%
same,activity at 1 µM,"WI‐26 VA4 cells [2]; WI26VA4, read-out: Efficacy, % of control, single replicate, 1000 nM",2.31%
